In US10023551B2, “Glutathione-cleavable prodrug and methods of use thereof” (GEORGETOWN UNIVERSITY, priority 2015, dated 2018):
Where two headings read alike, the source gives them in different places.

What was measured:
MCF10A [1] = test: Inhibition of cell proliferation in normal cells (MCF10A); type: cell-based
Protocol: (§1) To evaluate the toxicity of YK-5-252 in cells, the inhibition of cell proliferation was measured in normal cells (MCF10A) and TNBC cells (MDA-MB-231). […] This lack of selectivity can be attributed to the toxicity of YK-5-252.

MDA-MB-231 [2] = test: Inhibition of cell proliferation in TNBC cells (MDA-MB-231); type: cell-based
Protocol: as §1

tubulin polymerization = test: Immunofluorescence staining of tubulin in TNBC cells; type: cell-based; settings: 50 nM, MDA-MB-231
Protocol: To determine the biological effect of YK-5-252, its mechanism of action was determined through immunofluorescence staining.

[3] = Fluorescence properties and activation via GSH cleavage; type: physicochemical; settings: for NIR fluorescence emission: without GSH, excitation of 492 nm
Protocol: FIG. 11 contains emission spectra of compounds described herein.
The fluorescence properties and ability to be activated via GSH cleavage of YK-5-252 were evaluated. DCM-NH2 has a NIR fluorescence emission at 650 nm with an excitation of 492 nm (FIG. 11, panel a). […] This can be due to the loss of electron donating ability of the amine group when attached to the linker. To ascertain the stability of YK-5-252 toward GSH, fluorescence was monitored in the presence of GSH.

MDA-MB-231 [4] = test: FACS analysis of cell population containing released DCM-NH2, TNBC cells; type: cell-based; settings: treated 48 hours
Protocol: (§2) To further investigate the in vivo activation of YK-5-252, fluorescence-activated cell sorting (FACS) was used. Cells were treated with YK-5-252 for 48 hours. After treatment, FACS analysis was conducted to determine how much of the cell population has DCM-NH2 present. […] HPLC analysis confirmed that CA-4 release is concurrent with the release of DCM-NH2 in a traceless manner (FIG. 14, panels (a-d)). The difference in prodrug cleavage in cancer cells versus normal cells is due to the higher levels of GSH produced in cancer cells.

MCF10A [5] = test: FACS analysis of cell population containing released DCM-NH2, normal cells; type: cell-based; settings: treated 48 hours
Protocol: as §2

[6] = HPLC analysis of cleavage by glutathione; type: physicochemical; settings: YK-5-252 200 μM; GSH 50 mM
Protocol: FIG. 14 contains HPLC traces. Panel (a) is a trace of YK-5-252 (200 μM). Panel (b) is a trace of YK-5-252 (200 μM) and glutathione (GSH; 50 mM). Panel (c) is a trace of CA-4 (200 μM). Panel (d) is a trace of DCM (200 μM). […] After treatment with GSH (Panel (b)), the YK-5-252 peak at 10.5 minutes disappeared while two new peaks at 6.8 and 8.6 minutes appears which corresponds to the release of CA-4 and DCM-NH2, respectively (Panels (c) and (d)).
as §2

MDA-MB-231 versus MCF10A = test: Live cell imaging by confocal microscopy; type: cell-based; settings: 1 micromolar, 1 hour
Protocol: FIG. 12, panel (a) contains a confocal microscopy image of MDA-MB-231 cells (triple negative breast cancer cells) treated with YK-5-252 (1 micromolar) for 1 hour. Panel (b) contains a nuclear staining image of the cells with Hoesht dye. Panel (c) contains a merged image of panels (a) and (b). Panel (d) contains a confocal microscopy image of MCF10A (normal breast cells) treated with YK-5-252 (1 micromolar) for 1 hour. Panel (e) contains a nuclear stained image of the cells with Hoescht dye. Panel (f) contains a merged image of panels (d) and (e).
To test the ability of YK-5-252 to selectively release CA-4 in cancer cells, the presence of DCM was monitored through confocal microscopy. […] Also this experiment confirms the utility of YK-5-252 to monitor drug delivery and release in vivo.

[7] = system: MCF-7 and MCF-10A cell lines; test: In vitro cytotoxicity assay; type: cell-based; settings: FIGS. 7 and 8
Excerpt: FIG. 7 contains plots for use in calculating the IC50 values for YK-5-252 and CA-4 in a MCF-7 cell line.
FIG. 8 contains plots for use in calculating the IC50 values for YK-5-252 and CA-4 in a MCF-10A cell line.
YK-5-252, the designed drug with linked disulfide bond described above, can be cleaved by intracellular glutathione (GSH). Cancer cells have a much higher GSH concentration than normal cells; therefore, this GSH-cleavable prodrug holds promising therapeutic efficacy. Near-infrared photons can deeply penetrate the skin and tissue with minimal damage. […] Due to its NIR fluorescent property, the compound also offers an excellent ability for tracking drug release in vivo.

Compound	GI50 (MCF10A [1]; MCF10A normal breast cells, read-out: GI50 (Table 1)) [nM]	GI50 (MCF10A [1]; normal cells (MCF10A), read-out: GI50) [nM]	GI50 (MDA-MB-231 [2]; MDA-MB-231 TNBC cells, after 72 hours of treatment, read-out: GI50 (Table 1)) [nM]	GI50 (MDA-MB-231 [2]; TNBC cells (MDA-MB-231), read-out: GI50) [nM]	disruption of tubulin polymerization (tubulin polymerization; 1 hour)	NIR fluorescence emission [3]	GI50 (MCF10A [1]; Homo sapiens, MCF-10A, MCF10A normal breast cells, read-out: GI50 (Table 1)) [nM]	GI50 (MCF10A [1]; Homo sapiens, MCF-10A, normal cells (MCF10A), read-out: GI50) [nM]	GI50 (MDA-MB-231 [2]; Homo sapiens, MDA-MB-231 TNBC cells, after 72 hours of treatment, read-out: GI50 (Table 1)) [nM]	GI50 (MDA-MB-231 [2]; Homo sapiens, TNBC cells (MDA-MB-231), read-out: GI50) [nM]	cells containing DCM-NH2 (MDA-MB-231 [4]) [%]	cells containing DCM-NH2 (the fluorophore) (MCF10A [5])	disruption of tubulin polymerization (tubulin polymerization; 6 hours)	fluorescence emission in the presence of GSH ([3]; GSH 250 mM, pH 8, DMSO/PBS 50/50) [nm]	prodrug HPLC peak after treatment with GSH [6]	fluorescence in TNBC cells versus normal breast cells (MDA-MB-231 versus MCF10A)	toxicity compared with parent drug [7]
COc1ccc(/C=C\c2cc(OC)c(OC)c(OC)c2)cc1O [CA-4, combretastatin A-4, reference compound]	< 0.001	< 0.001	2.81	28.1	completely inhibited tubulin polymerization												
N#CC(C#N)=C1C=C(/C=C/c2ccc(N)cc2)Oc2ccccc21 [DCM-NH2, (E)-2-(2-(4-aminostyryl)-4H-chromen-4-ylidene)malononitrile]						650 nm											
COc1ccc(/C=C\c2cc(OC)c(OC)c(OC)c2)cc1OC(=O)OCCSSCCOC(=O)Nc1ccc(/C=C/C2=CC(=C(C#N)C#N)c3ccccc3O2)cc1 [YK-5-252]					did not cause disruption of tubulin polymerization	no NIR emission	19.2	~19.2	40.3	40.3	72	about 5%	began to disrupt tubulin polymerization	650	disappeared	higher quantities	much less toxic than its linked parent drug
